Test results: ChEMBL document CHEMBL1201862, “PubChem BioAssay data set” (2004)
Calls of active or inactive are those of the source.

Experiments:
[1] = target: T1, Bcl-2-like protein 10 (Homo sapiens, UniProt Q9HD36); experiment: displacers of TR3 peptide from Bcl-B, primary screen, selectivity assay for Bfl-1 inhibitor project, biochemical, fluorescence polarization, FITC-TR3 peptide (AID 748);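 also: fluorescence polarization from a fluorescein-labelled TR3 peptide binding purified Bcl-B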
T1 sequence (Q9HD36 whole entry): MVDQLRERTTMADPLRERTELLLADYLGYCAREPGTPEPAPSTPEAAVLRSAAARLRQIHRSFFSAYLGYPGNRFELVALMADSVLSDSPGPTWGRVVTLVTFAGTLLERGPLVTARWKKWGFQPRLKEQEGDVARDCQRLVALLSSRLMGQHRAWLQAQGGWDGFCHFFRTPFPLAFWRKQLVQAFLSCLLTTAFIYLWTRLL

[2] = target: Large T antigen (Simian virus 40, UniProt P03070); type: functional, Betapolyomavirus macacae;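 also: Confirmatory-stage PubChem screen for compounds that inhibit SV40 T antigen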
Chain of Large T antigen (P03070 whole entry): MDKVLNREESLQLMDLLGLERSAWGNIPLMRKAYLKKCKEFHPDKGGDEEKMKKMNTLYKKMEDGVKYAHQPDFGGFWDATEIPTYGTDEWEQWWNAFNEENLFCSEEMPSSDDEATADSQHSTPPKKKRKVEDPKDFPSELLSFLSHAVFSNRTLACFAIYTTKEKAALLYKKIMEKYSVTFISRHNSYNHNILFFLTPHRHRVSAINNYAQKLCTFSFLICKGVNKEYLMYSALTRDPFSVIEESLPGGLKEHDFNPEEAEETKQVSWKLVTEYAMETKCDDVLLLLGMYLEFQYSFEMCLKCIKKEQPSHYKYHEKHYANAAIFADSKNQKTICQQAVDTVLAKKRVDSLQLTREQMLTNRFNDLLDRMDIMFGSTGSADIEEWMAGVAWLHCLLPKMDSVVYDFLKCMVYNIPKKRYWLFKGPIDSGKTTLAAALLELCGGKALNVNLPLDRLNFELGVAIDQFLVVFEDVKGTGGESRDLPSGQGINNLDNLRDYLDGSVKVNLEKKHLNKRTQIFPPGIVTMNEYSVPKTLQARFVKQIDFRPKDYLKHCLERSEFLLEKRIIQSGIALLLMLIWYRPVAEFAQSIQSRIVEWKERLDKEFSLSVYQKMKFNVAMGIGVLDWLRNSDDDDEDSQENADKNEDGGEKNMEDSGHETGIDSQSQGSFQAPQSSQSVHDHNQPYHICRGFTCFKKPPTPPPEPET

[3] = target: Beta-galactosidase (Escherichia coli, UniProt Q8VNN2); experiment: beta-galactosidase enzyme inhibitors and activators, dose response, artefact control for CCR6 antagonist project, biochemical, E. coli enzyme, set 3 (AID 504712); type: functional
Chain of Beta-galactosidase (Q8VNN2 whole entry, the tested form may be a part): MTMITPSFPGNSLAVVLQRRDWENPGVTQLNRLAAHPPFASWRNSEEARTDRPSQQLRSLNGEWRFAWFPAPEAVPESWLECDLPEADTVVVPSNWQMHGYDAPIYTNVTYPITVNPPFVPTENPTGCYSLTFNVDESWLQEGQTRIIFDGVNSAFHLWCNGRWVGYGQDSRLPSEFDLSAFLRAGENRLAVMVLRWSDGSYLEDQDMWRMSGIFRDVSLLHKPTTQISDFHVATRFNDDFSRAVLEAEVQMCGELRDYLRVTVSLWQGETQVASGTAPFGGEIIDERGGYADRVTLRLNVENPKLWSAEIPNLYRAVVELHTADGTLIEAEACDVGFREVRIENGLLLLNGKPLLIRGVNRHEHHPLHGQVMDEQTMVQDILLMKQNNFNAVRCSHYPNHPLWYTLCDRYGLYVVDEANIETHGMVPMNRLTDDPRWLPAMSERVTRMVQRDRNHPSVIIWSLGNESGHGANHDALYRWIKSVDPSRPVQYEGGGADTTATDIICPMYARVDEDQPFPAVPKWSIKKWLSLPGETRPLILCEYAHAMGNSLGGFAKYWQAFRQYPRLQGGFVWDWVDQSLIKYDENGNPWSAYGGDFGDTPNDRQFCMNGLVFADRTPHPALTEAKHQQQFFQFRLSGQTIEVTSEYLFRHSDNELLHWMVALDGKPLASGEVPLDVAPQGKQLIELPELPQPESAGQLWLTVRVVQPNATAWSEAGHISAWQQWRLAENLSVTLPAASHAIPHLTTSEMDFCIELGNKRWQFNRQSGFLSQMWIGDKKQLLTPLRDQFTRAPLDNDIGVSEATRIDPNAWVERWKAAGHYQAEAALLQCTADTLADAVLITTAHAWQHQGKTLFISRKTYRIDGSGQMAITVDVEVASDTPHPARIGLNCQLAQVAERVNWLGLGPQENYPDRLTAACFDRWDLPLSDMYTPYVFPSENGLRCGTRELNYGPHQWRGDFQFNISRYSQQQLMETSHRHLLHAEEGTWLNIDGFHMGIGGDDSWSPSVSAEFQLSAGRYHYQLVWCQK

[4] = target: T2, Carboxy-terminal domain RNA polymerase II polypeptide A small phosphatase 1 (Homo sapiens, UniProt Q9GZU7); experiment: inhibitors of CTDSP1, concentration-response testing, biochemical assay, absorbance-based, actives from ultra-high-throughput screening (AID 540297); type: functional
T2 sequence (Q9GZU7 whole entry): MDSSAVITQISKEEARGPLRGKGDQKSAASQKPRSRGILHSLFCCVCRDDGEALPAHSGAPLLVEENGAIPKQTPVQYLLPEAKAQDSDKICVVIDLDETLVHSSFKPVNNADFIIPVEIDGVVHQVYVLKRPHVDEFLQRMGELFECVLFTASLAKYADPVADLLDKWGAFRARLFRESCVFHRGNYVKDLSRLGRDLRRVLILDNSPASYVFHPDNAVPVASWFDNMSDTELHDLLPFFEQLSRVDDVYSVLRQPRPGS

[5] = target: Genome polyprotein (dengue virus type 2, UniProt P29990); experiment: Dengue-2 NS5 methyltransferase inhibitors, primary screen, biochemical, confirmation dose response (AID 588689); type: functional
Chain of Genome polyprotein (P29990 2492-3391 limits assumed): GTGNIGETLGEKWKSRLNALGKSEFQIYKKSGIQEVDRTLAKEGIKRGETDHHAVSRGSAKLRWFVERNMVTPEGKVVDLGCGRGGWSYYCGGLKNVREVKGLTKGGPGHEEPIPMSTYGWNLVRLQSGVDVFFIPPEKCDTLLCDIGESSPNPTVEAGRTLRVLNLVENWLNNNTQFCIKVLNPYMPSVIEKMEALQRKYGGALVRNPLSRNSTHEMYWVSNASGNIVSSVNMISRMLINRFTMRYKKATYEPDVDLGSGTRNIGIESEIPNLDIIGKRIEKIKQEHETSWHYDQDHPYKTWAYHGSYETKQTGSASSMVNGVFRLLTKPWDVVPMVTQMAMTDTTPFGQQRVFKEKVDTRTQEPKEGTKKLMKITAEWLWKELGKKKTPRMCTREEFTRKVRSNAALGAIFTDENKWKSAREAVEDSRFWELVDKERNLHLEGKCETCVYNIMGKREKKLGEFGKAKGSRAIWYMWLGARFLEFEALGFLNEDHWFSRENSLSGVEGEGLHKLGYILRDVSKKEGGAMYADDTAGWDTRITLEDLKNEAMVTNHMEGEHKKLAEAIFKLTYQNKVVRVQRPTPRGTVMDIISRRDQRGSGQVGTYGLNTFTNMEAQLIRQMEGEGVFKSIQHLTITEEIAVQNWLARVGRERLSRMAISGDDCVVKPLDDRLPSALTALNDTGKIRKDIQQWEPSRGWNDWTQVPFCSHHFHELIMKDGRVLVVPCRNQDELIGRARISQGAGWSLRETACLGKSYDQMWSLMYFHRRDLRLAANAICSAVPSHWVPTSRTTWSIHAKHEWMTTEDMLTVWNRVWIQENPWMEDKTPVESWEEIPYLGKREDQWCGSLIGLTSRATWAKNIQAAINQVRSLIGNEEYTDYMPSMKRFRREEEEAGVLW

[6] = cytotoxicity toward NIH3T3 fibroblasts, dose response, counter-screen, cell-based, ATP luminescence, mouse fibroblasts (AID 2010); type: functional;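 also: cells exposed to compound for about 90 hours before reading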
[7] = inhibitors of intracellular T. cruzi replication, confirmation, NIH3T3 host cells, beta-gal luminescence (AID 2044); type: functional, cell-based;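 also: intracellular parasites grown in NIH/3T3 mouse fibroblasts as host cells; luminescent beta-galactosidase reporter signal from transgenic T. cruzi replicating inside host cells; inhibitors lower the luminescence signal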
[8] = insulin promoter down-regulators in MIN6 cells, imaging, high-content screening, mouse beta cells (AID 1628); type: functional
[9] = cytotoxicity in MIN6 insulinoma cells, dose response, cytotoxicity control, cell-based, mouse insulinoma (AID 2122); type: functional;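 also: confirmatory high-throughput counterscreen run to flag cytotoxic compounds; mouse MIN-6 beta cells carrying an insulin promoter eGFP reporter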
[10] = target: T3, Zinc finger protein mex-5 (Caenorhabditis elegans, UniProt Q9XUB2); experiment: MEX-5/TCR-2 RNA interaction inhibitors, dose response, biochemical, C. elegans, fluorescence polarization (AID 1960)
T3 sequence (Q9XUB2 whole entry): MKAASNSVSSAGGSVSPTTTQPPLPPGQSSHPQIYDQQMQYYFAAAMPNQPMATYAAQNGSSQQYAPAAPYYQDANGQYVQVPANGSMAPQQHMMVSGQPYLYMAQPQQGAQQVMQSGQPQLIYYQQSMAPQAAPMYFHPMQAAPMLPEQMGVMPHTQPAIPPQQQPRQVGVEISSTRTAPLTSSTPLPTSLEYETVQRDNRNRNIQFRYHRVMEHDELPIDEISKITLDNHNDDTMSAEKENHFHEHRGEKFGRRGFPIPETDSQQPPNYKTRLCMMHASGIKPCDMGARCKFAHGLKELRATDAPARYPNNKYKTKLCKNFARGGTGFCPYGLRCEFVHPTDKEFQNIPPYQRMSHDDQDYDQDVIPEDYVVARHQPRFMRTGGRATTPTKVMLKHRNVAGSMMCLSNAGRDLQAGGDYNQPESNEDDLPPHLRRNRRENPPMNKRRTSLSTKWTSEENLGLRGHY

[11] = HepG2 cell cytotoxicity, dose response, cytotoxicity control for non-replicating M. tuberculosis project (AID 489018); type: functional; details: Mycobacterium tuberculosis
[12] = target: T4, RNA-binding protein pos-1 (Caenorhabditis elegans, UniProt G5EF15); experiment: inhibitors of POS-1/mex-3 RNA binding, dose response, biochemical, fluorescence polarization (AID 1964);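 also: purified POS-1 fused to maltose binding protein made in E. coli; potency of compounds blocking POS-1 binding to fluorescent RNA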
T4 sequence (G5EF15 whole entry): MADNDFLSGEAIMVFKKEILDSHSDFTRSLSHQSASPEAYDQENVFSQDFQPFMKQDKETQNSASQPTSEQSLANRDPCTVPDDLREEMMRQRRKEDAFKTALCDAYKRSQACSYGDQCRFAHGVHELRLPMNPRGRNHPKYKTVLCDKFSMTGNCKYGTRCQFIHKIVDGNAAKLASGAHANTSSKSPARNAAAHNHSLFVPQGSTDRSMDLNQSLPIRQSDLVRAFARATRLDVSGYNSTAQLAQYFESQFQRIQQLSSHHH

[13] = THP-1 cell cytotoxicity, dose response, cytotoxicity control for non-replicating M. tuberculosis project (AID 489025); type: functional
[14] = cells; type: functional
[15] = Vero E6 cell cytotoxicity, dose response, cytotoxicity control for non-replicating M. tuberculosis project, secondary assay (AID 492998); type: functional, VeroE6; details: Vero C1008
[16] = target: T5, X-box-binding protein 1 (Homo sapiens, UniProt P17861); type: functional, Cricetulus griseus;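 also: confirmatory dose-response counter-screen serving a CHOP assay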
T5 sequence (P17861 whole entry): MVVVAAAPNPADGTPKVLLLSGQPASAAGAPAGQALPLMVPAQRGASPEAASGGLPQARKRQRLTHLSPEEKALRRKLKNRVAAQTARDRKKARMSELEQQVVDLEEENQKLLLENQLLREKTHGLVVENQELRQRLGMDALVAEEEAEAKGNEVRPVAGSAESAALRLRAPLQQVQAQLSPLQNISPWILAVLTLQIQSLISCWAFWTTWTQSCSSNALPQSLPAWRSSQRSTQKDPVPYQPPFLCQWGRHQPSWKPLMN

[17] = microbe, parasite or virus in culture; type: functional; details: Mycobacterium tuberculosis
[18] = target: T6, Ubiquitin-conjugating enzyme E2 N (Homo sapiens, UniProt P61088); type: functional;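 also: Dose-response confirmation in a TR-FRET assay detecting UBC13-driven polyubiquitin chain formation, inhibition measured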
T6 sequence (P61088 whole entry): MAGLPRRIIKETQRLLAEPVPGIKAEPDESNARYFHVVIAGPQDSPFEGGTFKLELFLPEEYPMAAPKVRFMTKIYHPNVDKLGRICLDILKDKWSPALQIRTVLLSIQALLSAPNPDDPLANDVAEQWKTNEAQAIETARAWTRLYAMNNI

[19] = test system: Escherichia coli; experiment: microbe, parasite or virus in culture
[20] = target: T7, Short transient receptor potential channel 4 (Mus musculus, UniProt Q9QUQ5); experiment: mouse TRPC4 channel activators, dose response, cell-based, HEK293 TRPC4/mu-opioid, Fluo-4 calcium (AID 434937); type: functional
T7 sequence (Q9QUQ5 whole entry): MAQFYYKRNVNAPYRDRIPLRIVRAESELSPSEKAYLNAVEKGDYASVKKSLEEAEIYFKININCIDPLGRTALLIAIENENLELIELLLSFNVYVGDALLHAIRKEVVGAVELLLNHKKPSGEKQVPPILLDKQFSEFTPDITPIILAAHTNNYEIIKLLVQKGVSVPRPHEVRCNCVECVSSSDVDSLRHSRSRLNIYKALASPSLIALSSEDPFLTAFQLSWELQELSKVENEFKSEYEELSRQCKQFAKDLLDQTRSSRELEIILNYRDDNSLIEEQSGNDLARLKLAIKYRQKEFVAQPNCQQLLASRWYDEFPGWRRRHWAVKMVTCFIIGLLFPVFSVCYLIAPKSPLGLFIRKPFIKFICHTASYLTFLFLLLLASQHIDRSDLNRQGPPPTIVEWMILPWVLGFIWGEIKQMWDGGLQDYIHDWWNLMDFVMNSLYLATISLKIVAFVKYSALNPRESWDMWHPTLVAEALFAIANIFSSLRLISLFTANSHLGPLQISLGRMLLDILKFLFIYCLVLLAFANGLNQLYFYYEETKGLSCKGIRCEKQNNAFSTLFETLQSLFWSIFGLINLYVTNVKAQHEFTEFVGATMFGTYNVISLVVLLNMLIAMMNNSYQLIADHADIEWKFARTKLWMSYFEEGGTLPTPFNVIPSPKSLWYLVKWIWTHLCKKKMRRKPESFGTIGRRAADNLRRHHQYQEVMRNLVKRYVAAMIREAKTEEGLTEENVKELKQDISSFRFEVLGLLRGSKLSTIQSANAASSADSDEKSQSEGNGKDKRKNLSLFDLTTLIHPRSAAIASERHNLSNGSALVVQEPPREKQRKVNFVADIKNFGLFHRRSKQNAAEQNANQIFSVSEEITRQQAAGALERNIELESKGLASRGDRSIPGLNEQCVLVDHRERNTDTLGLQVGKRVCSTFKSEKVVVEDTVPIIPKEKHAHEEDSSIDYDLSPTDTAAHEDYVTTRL

[21] = target: T7, Short transient receptor potential channel 4; experiment: mouse TRPC4 channel inhibitors, dose response, cell-based, HEK293 TRPC4/mu-opioid, Fluo-4 calcium (AID 434942); type: functional;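 also: potency of inhibitors blocking the TRPC4 calcium response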
[22] = target: Glucose-6-phosphate 1-dehydrogenase (Homo sapiens, UniProt P11413); experiment: human G6PD enzyme inhibitors, dose response, selectivity assay for P. falciparum G6PD inhibitor project, biochemical, fluorescence (AID 504792); type: functional
Chain of Glucose-6-phosphate 1-dehydrogenase (P11413 whole entry): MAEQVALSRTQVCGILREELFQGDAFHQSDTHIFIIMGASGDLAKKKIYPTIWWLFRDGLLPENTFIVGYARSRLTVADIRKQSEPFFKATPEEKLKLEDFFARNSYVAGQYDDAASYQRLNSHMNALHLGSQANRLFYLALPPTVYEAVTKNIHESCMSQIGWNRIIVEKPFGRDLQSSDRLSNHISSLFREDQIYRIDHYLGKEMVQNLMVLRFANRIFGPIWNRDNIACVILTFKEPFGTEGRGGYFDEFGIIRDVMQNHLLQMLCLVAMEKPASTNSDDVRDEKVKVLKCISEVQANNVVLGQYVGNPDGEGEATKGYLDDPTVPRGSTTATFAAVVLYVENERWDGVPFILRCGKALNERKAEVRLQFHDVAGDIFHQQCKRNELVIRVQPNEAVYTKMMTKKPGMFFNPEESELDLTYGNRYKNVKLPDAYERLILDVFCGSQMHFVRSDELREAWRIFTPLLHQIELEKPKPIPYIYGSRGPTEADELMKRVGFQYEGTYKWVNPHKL

[23] = NIH-3T3 fibroblast cytotoxicity, dose response, cytotoxicity control, cell-based, fluorescence, Alamar Blue, secondary assay (AID 2327); type: functional;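 also: NIH-3T3 mouse fibroblasts cultured with fluconazole at 8 µg/mL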
[24] = C. albicans growth with fluconazole, confirmation, fluorescence, retest (AID 2467); type: functional, cell-based
[25] = target: T8, Protein skinhead-1 (Caenorhabditis elegans, UniProt P34707); type: functional
T8 sequence (P34707 whole entry): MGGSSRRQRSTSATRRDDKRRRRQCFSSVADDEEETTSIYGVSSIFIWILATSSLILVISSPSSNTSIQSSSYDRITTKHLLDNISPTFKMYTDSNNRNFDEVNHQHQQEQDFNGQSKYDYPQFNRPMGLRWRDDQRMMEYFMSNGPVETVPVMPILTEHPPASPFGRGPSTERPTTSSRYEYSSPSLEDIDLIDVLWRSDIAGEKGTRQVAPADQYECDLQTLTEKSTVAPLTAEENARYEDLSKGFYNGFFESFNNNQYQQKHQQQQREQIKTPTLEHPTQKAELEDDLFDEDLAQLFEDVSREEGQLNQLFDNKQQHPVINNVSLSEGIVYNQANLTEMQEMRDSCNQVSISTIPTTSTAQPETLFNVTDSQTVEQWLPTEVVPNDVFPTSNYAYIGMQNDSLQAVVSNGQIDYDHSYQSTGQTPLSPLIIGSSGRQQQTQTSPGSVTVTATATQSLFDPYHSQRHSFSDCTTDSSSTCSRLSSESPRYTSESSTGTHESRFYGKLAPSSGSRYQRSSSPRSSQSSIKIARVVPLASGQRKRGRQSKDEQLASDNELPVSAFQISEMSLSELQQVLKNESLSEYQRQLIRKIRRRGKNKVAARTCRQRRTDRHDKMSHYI

O=c1c2cc(N3CCOCC3)ccc2[nH]c(=S)n1CCCN1CCCCCC1
IC50 [1]: 88 µM (inactive)

Nc1ccc(OCC(O)C[n+]2ccc(CCS(=O)(=O)[O-])cc2)cc1 (stereo unspecified)
IC50 [2]: 17.9 µM (active)

O=C(CN1C(=O)/C(=C2/SC(=S)N(CCS(=O)(=O)O)C2=O)c2ccccc21)Nc1cccc(C(F)(F)F)c1
IC50 [3]: > 66.6 µM (inactive)
IC50 [4]: 2.41 µM (active)
IC50 [5]: 35.3 µM (active)

COc1cccc(CNC(=O)CN2CCC(c3nc4cc(C)ccc4[nH]3)CC2)c1
EC50 [6]: > 60 µM (not active)
EC50 [7]: 217 nM (active)
IC50 [8]: 2 µM (active)
IC50 [9]: 15 µM (inactive)

C=CCn1c(SCc2cc(=O)n3ccsc3n2)nnc1C1CCCCC1
IC50 [1]: 61.5 µM (inactive)

Cc1cnc(C(=O)NNC(=O)c2ccc(Br)cc2)cn1
EC50 [10]: 9.68 µM (active)
CC50 [11]: > 20 µM (active)
EC50 [12]: > 300 µM (not active)
CC50 [13]: 26.3 µM (active)
IC50 [14]: 23.2 µM (active)
CC50 [15]: 14.6 µM (active)

CC1=CC(C)(C)N(C(=O)c2ccc(F)cc2)c2cc3c(cc21)OCO3
Absolute IC50 (XBP1) [16]: 10 µM

COC(=O)c1c(N=C(S)NN2CCN(C)CC2)sc2c1CCC(C)C2 (stereo unspecified)
CC50 [17]: 11.6 µM (active)
IC50 [18]: > 20 µM (inactive)
IC50 [8]: 4.04 µM (active)
IC50 [9]: 3.07 µM (active)

COc1ccc(Nc2nc(NCCO)nc(OC)n2)cc1
AC50 [19]: 25.5 µM (active)

CCCN1CCN(C(=O)Cn2c(=O)oc3cc(S(=O)(=O)NCc4ccccc4)ccc32)CC1
EC50 [20]: 4.22 µM (active)

CN(C)C(CNC(=O)c1ccc2c(c1)S(=O)(=O)c1ccccc1C2=O)c1ccco1 (stereo unspecified)
EC50 [20]: 0.668 µM (active)
EC50 [21]: 4.73 µM (active)

CCOC(=O)CSc1nnc(NC(=O)c2cccc([N+](=O)[O-])c2)s1
IC50 [22]: 43.8 µM (inactive)

CCN(CC)Cc1ccc(NC(=O)c2sc3cc(Cl)ccc3c2Cl)cc1
EC50 [23]: 16.8 µM (inconclusive)
CC50 [11]: 11.7 µM (active)
EC50 [24]: 3.87 µM (active)
CC50 [13]: 19.9 µM (active)
IC50 [14]: 32.9 µM (active)
IC50 [25]: 26.3 µM (active)
CC50 [15]: 18.9 µM (active)

COc1cc(NCCCn2cnc(C(=O)Nc3ccc(C)c(C)c3)n2)cc(OC)c1OC
IC50 [22]: > 80 µM (inactive)

O=[N+]([O-])c1ccc(-c2nn(-c3ccccc3)cc2/C=N/n2c(S)nnc2-c2cccs2)cc1
Absolute IC50 (XBP1) [16]: 10 µM

C/C(=N/NC(=S)Nc1ccccc1)c1ccc2c(c1)OCO2
IC50 [3]: > 66.6 µM (inactive)

C/C(=N\Nc1nc2ccccc2[nH]1)c1cc2ccccc2o1
CC50 [13]: > 40 µM (active)
IC50 [14]: 1.28 µM (active)
CC50 [15]: > 20 µM (active)

COc1cc(/C=N/NC(=O)NC2CCCCC2)ccc1O
IC50 [2]: 7.16 µM (active)

Cc1ccc(-c2c(C(=O)N/N=C/c3cccs3)nnn2-c2nonc2N)cc1
IC50 [22]: > 80 µM (inactive)
